“Also recorded” adds a separate entry of the source.
Columns and labels:
Format in all cases: cell-based
[1] = test system: APOL1 mRNA expression in endothelial cells; test: APOL1 mRNA expression in endothelial cells treated with interferon beta and JAK inhibitors; details: interferon beta (FIG. 4A-4C)
From the text: JAK inhibitors are in clinical testing for autoimmune disease, transplant immunosuppression, and myelodysplastic syndromes. They are selective, rather than specific, for individual JAK inhibitors. For example, WHI-P131 targets JAK3, INCB018424 (ruxolitinib) targets […] and JAK2, and TG101348 targets JAK2.

[2] = test system: APOL1 mRNA expression in endothelial cells; test: APOL1 mRNA expression in endothelial cells after stimulation with interferons, TLR/RIG agonists or bacterial DNA; details: interferon stimulation (FIG. 3A, 3B)
From the text: HIV is a powerful inducer of APOL1 renal disease in individuals with the renal risk genotype. Other viruses such as parvovirus have been associated with FSGS. […] Cells have extracellular, endosomal, and cytoplasmic viral sensors such as TLRs, Rig-L1, and others. These genes are potential targets for reducing APOL1 expression.

[3] = test system: APOL1 expression in endothelial cells; test: APOL1 expression in endothelial cells treated with TLR3 agonist poly(I:C) and inhibitors; details: TLR3 agonist poly(I:C) (FIG. 8-13)
Procedure: Endothelial cells were treated with the TLR3 agonist poly(I:C) and with JAK inhibitors (FIGS. 8A-8D), Bx795(a TBK1/IKKe inhibitor) (FIG. 9), and chloroquine (FIG. 10). […] The TBK1/IKK e complex is used by both TLR and Rig-like receptor signaling mechanisms, and therefore offers a broader target for inhibition of APOL1 expression than either pathway alone. Chloroquine and similar class of compounds may be particularly useful for inhibiting APOL1 expression when that expression is driven by endosomal pattern recognition receptors such as TLR3, TLR7, TLR8, TLR9, and in some cases TLR4. Even though TLR3 expression is described above as an example, these strategies are likely to be effective in blocking APOL1 expression driven by multiple inflammatory stimuli.
Endothelial cells were treated with the TLR3 agonist poly(I:C) and with NF-κB inhibitors (FIG. 11), PKR inhibitors (FIG. 12), and MAP kinase inhibitors (FIG. 13).

[4] = test system: APOL1 expression; test: shRNA knockdown experiments on poly(I:C)-induced APOL1 upregulation; details: polyI:C versus control, GFP virus control (FIG. 14)
From the text: To validate pharmacologic targets that may regulate pathogenic APOL1 expression, we used shRNA to determine specific genes that mediate the APOL1 upregulation induced by poly(I:C). These experiments allowed us to confirm targets identified above by pharmacologic methods and to identify additional known targets in these same pathways. […] The data shown in FIG. 14 validates several pathways identified by the pharmacological experiments described above and identifies additional pathways that can be targeted to decrease pathogenic APOL1 expression.

[5] = test system: APOL1 expression in podocytes; test: APOL1 expression in podocytes treated with TLR3 agonist poly(I:C) and inhibitors; details: podocytes (not shown)

Cc1cnc(Nc2ccc(OCCN3CCCC3)cc2)nc1Nc1cccc(S(=O)(=O)NC(C)(C)C)c1 [TG101348]
effect on APOL1 upregulation caused by interferon beta (in words) [1]: block the potentially pathologic upregulation of APOL1

interferon gamma: type 2 (gamma) interferon
upregulation of APOL1 [2]: up to 200 fold

O=C1Nc2ccc3ncsc3c2/C1=C/c1c[nH]cn1 [imidazolo-oxindole PKR inhibitor]
effect on poly(I:C) induced APOL1 upregulation (in words) [3]: blocks APOL1 upregulation
effect on poly(I:C) induced APOL1 upregulation (in words) ([3]; listed as drawing 4): completely blocked poly(I:C) induced APOL1 upregulation

CCN(CC)CCCC(C)Nc1ccnc2cc(Cl)ccc12 (stereo not shown) [chloroquine]
effect on poly(I:C) induced APOL1 upregulation (in words) [3]: reduced the poly(I:C) induced increased in APOL1 expression

Nc1ccc2ncnc(NCCc3ccc(Oc4ccccc4)cc3)c2c1 [6A4Q, 6-amino-4-(4-phenoxyphenylethylamino) quinazoline]
effect on poly(I:C) induced APOL1 upregulation (in words) [3]: could be inhibited

O=C(NCCCNc1nc(Nc2cccc(NC(=O)N3CCCC3)c2)ncc1I)c1cccs1 [Bx795]
effect on poly(I:C) induced APOL1 upregulation (in words) [3]: reduced the poly(I:C) induced increased in APOL1 expression

N#CC[C@H](C1CCCC1)n1cc(-c2ncnc3[nH]ccc23)cn1 [INCB018424]
effect on APOL1 upregulation caused by interferon beta (in words) [1]: block the potentially pathologic upregulation of APOL1

COc1cc2ncnc(Nc3ccc(O)cc3)c2cc1OC [WHI-P131]
effect on APOL1 upregulation caused by interferon beta (in words) [1]: block the potentially pathologic upregulation of APOL1

CC(C)(C)c1ccc(S(=O)(=O)/C=C/C#N)cc1 [Bay 11-7085]
effect on poly(I:C) induced APOL1 upregulation (in words) [3]: could be inhibited

polyI:C
stimulation of APOL1 expression (in words) [4]: strongly stimulates APOL1 expression

Oc1c2ccccc2c2c3c(cccc13)N=N2 [SP600125]
inhibition of APOL1 expression [5]: 50%

C[S+]([O-])c1ccc(-c2nc(-c3ccncc3)c(-c3ccc(F)cc3)[nH]2)cc1 (stereo not shown) [SB203580]
effect on poly(I:C) induced APOL1 upregulation (in words) [3]: inhibited blocked poly(I:C) induced APOL1 upregulation; also recorded: inhibited APOL1 expression

Source: patent US10940151B2, “Methods for treating renal disease” (Beth Israel Deaconess Medical Center, Inc., priority 2012, dated 2021)
